Measurements published in patent US10611765B2, “Pyrrolopyrimidine derivatives as Mps1/TTK kinase inhibitors” (Ohio State Innovation Foundation, priority 2014, dated 2020).

What was measured:
BT-549 = test: MTS anti-proliferative assay, BT-549; type: cell-based; settings: Homo sapiens, 168 h, BT-549, TNBC, basal B, treatment for 7 days
Method: (§1) The anti-proliferative effects and IC50 values of the compounds in the BC cell line panel were determined by MTS assay.
The cells, except Sk-Br-3, AU565 and BT-474 were maintained in a mixture of Dulbecco's modified Eagle's medium and Ham's F12 medium (1:1) (DMEM/F12) without phenol red supplemented with 5% fetal bovine serum (FBS) and 1× antibiotic-antimycotic (100 U/mL penicillin G sodium, 100 μg/mL streptomycin sulfate and 0.25 μg/mL amphotericin B) and were plated separately in flasks in a humidified incubator (5% CO2: 95% air, 37° C.). The media used for Sk-Br-3, AU565 and BT-474 cell lines was described in (1) Brueggemeier et al., J. Steroid Biochem. Mol. Biol., 2005; 95:129-136; and (2) Diaz-Cruz et al., J. Clin. Endocrinol. Metab., 2005; 90:2563-2570. The media were changed every 2-days. When the cells grew to about 80% confluence, cells were washed twice with calcium- and magnesium-free phosphate-buffered saline (PBS, pH 7.4), and then trypsinized with 0.05% trypsin-5.3 mm EDTA. The trypsinization was stopped by addition of culture medium with 5% FBS. After centrifugation, the dissociated cells were resuspended in the same medium and subcultured into 75-cm^2 culture flasks at a ratio of 1:5 flasks.
(§2) The BC cells were seeded at the density of 1,000 cells per well (100 μL) into 96 well plate in DMEM/F-12 (1:1), supplemented with 5% (v/v) FCS and incubated overnight at 37° C. Test compounds are solubilized in dimethyl sulfoxide (DMSO), diluted in cell culture medium to a range of final assay concentrations of 1 nM to 10 μM, added to cells and incubated for 7 days at 37° C. The medium including the test compound are refreshed at days 3 and 5. The MTS assay are carried out by using the CellTiter 96® AQueous One Solution Cell Proliferation Assay kit following the manufacturer's instruction.

MDA-MB-436 = test: MTS anti-proliferative assay, MDA-MB-436; type: cell-based; settings: Homo sapiens, 168 h, MDA-MB-436, TNBC, basal B, treatment for 7 days
Method: as §1
(§3) The media were changed every 2-days. When the cells grew to about 80% confluence, cells were washed twice with calcium- and magnesium-free phosphate-buffered saline (PBS, pH 7.4), and then trypsinized with 0.05% trypsin-5.3 mm EDTA. The trypsinization was stopped by addition of culture medium with 5% FBS.
as §2

MDA-MB-453 = test: MTS anti-proliferative assay, MDA-MB-453; type: cell-based; settings: Homo sapiens, 168 h, MDA-MB-453, luminal A, treatment for 7 days
Method: as §1, §3, §2

Cal-51 cells = test: Centriole assembly / centrosome amplification assay, Cal-51; type: cell-based
Method: (§4) For these cell biology assays, cells were plated onto poly-L-lysine coated coverslips in 24 well dishes using the medium and growth conditions described above, but using medium containing phenol red. At 24 hours after plating, compounds (or the equivalent amount of DMSO) were added to individual wells at various concentrations. Cells were incubated for 24 hours at 37° C. BrdU was added during the last 4 hours of the incubation, after which cells were fixed in pre-chilled methanol at −20 OC for 10 minutes, stained with centrosome markers, then treated with acid to denature chromosomal DNA prior to staining for BrdU. To assess centriole biogenesis, centriole number was determined for triplicate samples in cells that had entered S-phase as judged by incorporation of BrdU. Primary antibodies used were mouse anti-γTubulin (pericentriolar material) and rabbit anti-Centrin 2 (centrioles). Secondary antibodies used were Alexa594-conjugated donkey anti-mouse and Alexa488-conjugated donkey anti-rabbit.
For centriole assembly assays, Cal-51 and MDA-MB-468 cells were treated with candidate compounds prior to a short pulse of BrdU. Because the centriole pair is replicated at the G1/S transition, compounds that block centrosome assembly will lead to an increased number of BrdU-positive cells with two centrioles. In addition, like many breast cancer cells Cal-51 and MDA-MB-468 are capable of centrosome amplification, and compounds that block this centrosome amplification should reduce the number of BrdU-positive cells with more than four centrioles.

MDA-MB-468 cells = test: Centriole assembly / centrosome amplification assay, MDA-MB-468; type: cell-based; settings: compared to IN-1, AZ3146 and Compound 5
Method: as §4
For centriole assembly assays, Cal-51 and MDA-MB-468 cells were treated with candidate compounds prior to a short pulse of BrdU. Because the centriole pair is replicated at the G1/S transition, compounds that block centrosome assembly will lead to an increased number of BrdU-positive cells with two centrioles. […]

[1] = target: Mps1 (autophosphorylation) (Homo sapiens, UniProt P33981); test: biochemical
Method: (§5) Briefly, the inhibition potency to Mps1 kinase activity was determined by measurement of radioactive phosphotransfer to the specific substrate, Cetn2. The autophosphorylation of Mps1 was also measured using the same method without adding Cetn2 in the kinase assay reaction mixture. […] Mps1 activity was measured using 0.25 ng of recombinant GST-Mps1 protein in 50 mM TrisCl pH 7.5, 0.5 mM DTT, 10 mM MgCl2, 300 μM recombinant Cetn2 and 3 μM ^32P-γ-ATP. […] ATP was added to initiate the kinase assay, incubated at 30° C. for 30 min and five-fold volume of […] was added to quench the reaction. The whole reaction was immobilized on Immobilon-P^SQ PVDF membrane (Millipore) using a dot blotter connected to vacuum line. Each well was washed three times with 300 μL of PBS. The membrane was further washed by soaking in PBS, dried, and exposed overnight to a Phosphor Screen. The image was acquired by the Storm imaging system (Amersham). The density analyses were performed by using Image-J program, and kinetic constants were calculated by GraphPad Prism 5 software. Commercial kinase profiling assays were performed by Reaction Biology Corp., Malvern, Pa.

JNK1 = JNK1 (Homo sapiens, UniProt P45983); settings: read-out: IC50 JNK1; kinase profiling
Method: as §5

JNK1, sequence (P45983 whole entry): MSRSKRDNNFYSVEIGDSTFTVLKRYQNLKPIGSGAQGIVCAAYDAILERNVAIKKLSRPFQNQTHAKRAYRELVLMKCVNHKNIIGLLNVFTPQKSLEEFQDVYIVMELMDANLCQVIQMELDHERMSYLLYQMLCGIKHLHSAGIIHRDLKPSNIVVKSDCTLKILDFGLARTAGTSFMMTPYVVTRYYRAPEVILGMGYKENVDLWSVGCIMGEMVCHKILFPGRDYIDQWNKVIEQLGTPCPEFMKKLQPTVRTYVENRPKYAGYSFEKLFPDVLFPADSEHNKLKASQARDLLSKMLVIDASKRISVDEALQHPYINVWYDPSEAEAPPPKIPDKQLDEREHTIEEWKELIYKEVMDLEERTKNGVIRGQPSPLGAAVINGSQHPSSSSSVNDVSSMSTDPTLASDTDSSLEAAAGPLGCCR
Mps1 (autophosphorylation), sequence (P33981 whole entry): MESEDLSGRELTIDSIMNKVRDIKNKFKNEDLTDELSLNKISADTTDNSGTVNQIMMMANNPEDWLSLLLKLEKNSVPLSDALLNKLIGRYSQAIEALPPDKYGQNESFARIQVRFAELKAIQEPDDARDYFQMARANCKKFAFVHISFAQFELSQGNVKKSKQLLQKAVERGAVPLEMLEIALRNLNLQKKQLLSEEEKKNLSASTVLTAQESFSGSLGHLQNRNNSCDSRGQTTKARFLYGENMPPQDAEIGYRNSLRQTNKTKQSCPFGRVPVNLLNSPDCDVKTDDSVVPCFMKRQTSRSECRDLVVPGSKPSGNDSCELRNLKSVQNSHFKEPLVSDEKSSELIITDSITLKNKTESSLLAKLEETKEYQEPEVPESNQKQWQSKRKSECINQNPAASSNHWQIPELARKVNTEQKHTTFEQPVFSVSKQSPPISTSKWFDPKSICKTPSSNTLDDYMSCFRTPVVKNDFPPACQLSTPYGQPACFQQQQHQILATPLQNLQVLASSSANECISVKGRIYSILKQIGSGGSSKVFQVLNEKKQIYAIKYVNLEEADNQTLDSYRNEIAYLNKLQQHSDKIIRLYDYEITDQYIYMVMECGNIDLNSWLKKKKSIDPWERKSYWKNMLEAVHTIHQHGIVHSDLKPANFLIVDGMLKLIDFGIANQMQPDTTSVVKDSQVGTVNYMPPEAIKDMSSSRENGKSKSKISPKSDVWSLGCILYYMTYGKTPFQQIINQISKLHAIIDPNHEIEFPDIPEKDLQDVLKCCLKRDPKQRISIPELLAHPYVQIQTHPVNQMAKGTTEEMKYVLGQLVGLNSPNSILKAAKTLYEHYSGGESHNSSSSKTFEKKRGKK

SMILES | IC50 (BT-549) [nM] | IC50 (MDA-MB-436) [nM] | IC50 (MDA-MB-453) [nM] | percentage of cells with more than four centrioles (centrosome amplification) (Cal-51 cells; Cal-51) | percentage of BrdU positive cells that have just two centrioles (centriole assembly) (Cal-51 cells; Cal-51, continued investigations) | percentage of BrdU-positive cells that have just two centrioles (MDA-MB-468 cells) | percentage of cells with more than four centrioles (MDA-MB-468 cells) | IC50 [1] [nM] | IC50 (JNK1) [nM]
COc1cc(N2CCC(O)CC2)ccc1Nc1nc(Nc2ccccc2S(=O)(=O)C(C)C)c2cc[nH]c2n1 [Compound 1, 1-(4-((4-((2-(isopropylsulfonyl)phenyl)amino)-7H-pyrrolo[2,3-d]pyrimidin-2-yl)amino)-3-methoxyphenyl)piperidin-4-ol] | 810 | 900 | 820 | dose-dependent reduction | dose-dependent increase | increases | decreases | – | –
COc1cc(N2CCOCC2)ccc1Nc1nc(NC2CCCCC2)c2cc[nH]c2n1 [Compound 13, N4-cyclohexyl-N2-(2-methoxy-4-morpholinophenyl)-7H-pyrrolo[2,3-d]pyrimidine-2,4-diamine] | – | – | – | – | – | – | – | 312 | 1670
